{"source": "patent US20180235942A1", "about": "(priority 2015, published 2018)", "key": {"[1]": {"tested_on": "healthy elderly male and female subjects", "set-up": "species or system human", "conditions": "in vivo, po"}, "[2]": {"tested_on": "healthy, male and female subjects", "test": "Driving performance study, real driving on the road after evening or middle-of-the-night dosing", "type": "in vivo, human", "conditions": "for effect on driving: gaboxadol 15 mg; for effect on memory test, body sway, DSST or critical tracking: in vivo", "from_the_text": "The study participants included healthy, male and female subjects between 21 and 45 years of age, with a valid drivers license for at least 3 years.\nFollowing a cognitive and psychomotor test battery, the driving test started at 9 am and lasted for one hour."}, "[3]": {"tested_on": "healthy adults subjected to a 5-hour sleep restriction", "test": "Daytime performance after 5-hour sleep restriction (MSLT, SWS, KSS)", "type": "in vivo, human", "method": "The study included a 2-night single-blind placebo run-in period, a 4-night double-blind treatment period during which sleep was restricted to 5 hours and a 2-night single-blind placebo run-out period. The study included healthy male and female volunteers 18 to <55 years of age.\nThe primary endpoints included observations based on the Multiple Sleep Latency Test (MSLT) and Slow Wave Sleep (SWS) assessment."}, "[4]": {"tested_on": "patients with a history of drug abuse", "conditions": "cited from earlier work"}, "[5]": {"tested_on": "normal healthy adult subjects", "test": "Intravenous and oral tolerability and safety in healthy adult subjects", "type": "in vivo, human", "from_the_text": "There was a washout of 4 days between each treatment period.\nThe study included healthy, male and female subjects between 18 and 45 years of age within 30% of ideal weight. The subjects in Part 1 of the study could be of either gender, but within Part 2 of the study there had to be at least 4 subjects of each gender."}, "[6]": {"tested_on": "insomnia", "conditions": "three-month efficacy study; cited from earlier work"}, "[7]": {"test": "clinical", "conditions": "both, human, in vivo"}, "[8]": {"conditions": "middle-of-the-night administration, zolpidem 10 mg"}}, "note": "Read-outs that look alike come from different tables or passages of the source."}
{"compound": "CCN(CC)CCN1C(=O)CN=C(c2ccccc2F)c2cc(Cl)ccc21", "note": "[Flurazepam]", "values": [{"measurement": "residual effect on Choice Reaction Time and Critical Flicker Fusion", "setting": "[1]", "value": "showed significant effect"}]}
{"compound": "CN1CCN(C(=O)OC2c3nccnc3C(=O)N2c2ccc(Cl)cn2)CC1", "note": "(stereo not shown) [zopiclone]", "values": [{"measurement": "effect on driving", "setting": "[2]; evening dose, zopiclone 7.5 mg", "value": "numerically greater effect"}, {"measurement": "effect on memory test, body sway, DSST or critical tracking", "setting": "[2]", "value": "had effect on several of these tests"}]}
{"compound": "Oc1noc2c1CCNC2", "note": "[gaboxadol, 4,5,6,7-tetrahydroisoxazolo [5,4-c]pyridine-3-ol]", "values": [{"measurement": "Renal clearance (CLR)", "setting": "human, in vivo", "value": "greater than glomerular filtration rate"}, {"measurement": "steady-state volume of distribution (Vss)", "setting": "human, in vivo, iv", "value": "moderate"}, {"measurement": "systemic clearance (CL)", "setting": "human, in vivo, iv", "value": "moderate"}, {"measurement": "AUC0-inf and Cmax versus dose", "setting": "oral administration", "value": "increased with increasing dose"}, {"measurement": "AUC0-inf and Cmax versus dose", "setting": "single intravenous doses", "value": "increased with increasing dose"}, {"measurement": "daytime sleepiness versus placebo (MSLT)", "setting": "[3]; 15 mg, Sleep Restriction period, p=0.047, 1 sided", "value": "significantly less daytime sleepiness"}, {"measurement": "MSLT, longer than placebo on average", "setting": "[3]; 15 mg, last two Sleep Restriction days", "value": 2.01, "unit": "min"}, {"measurement": "slow wave sleep (SWS) versus placebo", "setting": "[3]; Sleep Restriction period, p<0.001, 1 sided", "value": "significantly more SWS"}, {"measurement": "biophysiological measures of stress (heart rate variability, cortisol levels, catecholamine levels, body temperature) versus placebo", "setting": "[3]; in vivo", "value": "no differences"}, {"measurement": "daytime performance, neurocognitive battery effect sizes", "setting": "[3]; in vivo", "value": "no strong evidence that gaboxadol improves daytime performance"}, {"measurement": "Karolinska Sleepiness Score (KSS), less than placebo on average", "setting": "[3]; last two Sleep Restriction days, p=0.058, 1 sided, LDA model", "value": 0.68}, {"measurement": "SWS, longer than placebo on average", "setting": "[3]; last two Sleep Restriction nights", "value": 20.53, "unit": "min"}, {"measurement": "psychiatric adverse events", "setting": "[4]", "value": "steep increase in psychiatric adverse events"}, {"measurement": "most common clinical adverse experiences", "setting": "[5]; both parts of the study", "value": "somnolence and dizziness"}, {"measurement": "serious adverse experiences", "setting": "[5]; both parts of the study", "value": "no serious adverse experiences reported"}, {"measurement": "tolerability", "setting": "[5]; single intravenous doses of 5 and 10 mg, single oral doses from 2.5 to 20 mg", "value": "generally well tolerated"}, {"measurement": "residual effect on Choice Reaction Time and Critical Flicker Fusion", "setting": "[1]", "value": "did not show residual effect"}, {"measurement": "residual effects on other measurements (MSLT, DSST, Tracking, Memory tests, Body Sway, Leeds Sleep Evaluation Questionnaire)", "setting": "[1]", "value": "did not show any signs of residual effects"}, {"measurement": "effects in sleep onset and sleep maintenance", "setting": "[6]", "value": "failed to show significant effects"}, {"measurement": "tolerability", "setting": "[2]; evening and middle-of-the-night dose", "value": "well tolerated"}, {"measurement": "effect on driving compared with 0.05% blood alcohol concentration", "setting": "[2]; evening dose, 15 mg", "value": "less than the effect observed at a 0.05% blood alcohol concentration"}, {"measurement": "effect on driving", "setting": "[2]; evening dose, zopiclone 7.5 mg", "value": "statistically significant effect"}, {"measurement": "most frequent adverse events", "setting": "[2]; evening treatment", "value": "headache and somnolence"}, {"measurement": "effect on memory test, body sway, DSST or critical tracking", "setting": "[2]", "value": "no effect"}, {"measurement": "effect on driving", "setting": "[2]; [8]", "value": "clinically relevant impairing effect"}, {"measurement": "most frequent adverse events", "setting": "[2]; middle-of-the-night treatment", "value": "dizziness, nausea and somnolence"}, {"measurement": "bioavailability", "setting": "[7]", "value": 92, "unit": "%"}]}
{"compound": "Cc1ccc(-c2nc3ccc(C)cn3c2CC(=O)N(C)C)cc1", "note": "[zolpidem]", "values": [{"measurement": "effect on driving", "setting": "[2]; [8]", "value": "numerically greater effect"}]}
